Assay results taken from patent US12521387B2, “Prophylactic or therapeutic drug for neurodegenerative diseases” (Medilabo RFP, Inc., priority 2019, dated 2026).
“Also recorded” adds a separate entry of the source. Where two headings read alike, the source gives them in different places.

What was measured:
[1] = tested on: APPOSK mice; experiment: Morris water maze behavioral test (spatial reference memory, cognitive function) in Alzheimer's disease model mice; assay type: in vivo, mouse; settings: for Cognitive function (Morris water maze): transnasal
Source text: Eleven-month-old male APPOSK mice (Tomiyama et al. J Neurosci. 2010; 30: 4845-56) were provided. The body weight of each of the APPOSK mice was about 30 g. Sixty APPOSK mice were divided into five groups A to E each including 12 mice. Separately, 12 wild-type mice (non-Tg littermate) of the same month old were provided. The APPOSK mice were amyloid precursor protein (APP) transgenic mice (Alzheimer's disease models), and had accumulation of amyloid-β (Aβ) protein.
For oral administration, an oral sound for rodents was used; for transnasal administration, pipetman (white tip) was used; and for subcutaneous administration, an injection syringe was used. All of these administrations were carried out under non-anesthesia.
The behavioral test was carrying out by determining the spatial reference memory of each of the mice using a Morris water maze in accordance with the method described in Umeda et al. Brain 2016; 139: 1568-86.
Thirteen-month-age (13 mo) individuals of the APPOSK mice shown in Test Example 1 were used.

[2] = tested on: APPOSK mice; experiment: Liver enzymes AST (GOT) and ALT (GPT) in serum (hepatic dysfunction); assay type: in vivo, mouse; settings: for AST level (in words): transnasal
Source text: Blood was collected from each of the mice after the completion of the behavioral test, and then serum was separated from the blood to prepare a serum sample.

[3] = target: T1, Aβ oligomers (Homo sapiens, UniProt P05067, DEL693-693); assay type: in vivo, mouse; settings: APPOSK mice, transnasal, every day for 1 month
T1 construct: had accumulation of amyloid-β (Aβ) protein; from tissue; host or cells: brain (hippocampus) of APPOSK transgenic mice
Source text: (§1) Each of Aβ oligomers (Aβ oligomers have been believed to cause the phosphorylation of tau and the decrease in synaptophysin), synaptophysin (a marker protein for a synapse) and phosphorylated tau was stained by an immunohistochemical staining method in accordance with the procedure described in Umeda et al. Brain 2016; 139: 1568-86. For the staining of the Aβ oligomers, 11A1 antibody (Immuno-Biological Laboratories Co, Ltd.) was used; for the staining of synaptophysin, SVP-38 antibody (Sigma) was used; and for the staining of phosphorylated tau, mouse monoclonal PHF-1 antibody (an anti-p-Ser396/404-tau antibody, provided by Peter Davies, Ph. d., Albert Einstein College of Medicine). After the staining, each of the Aβ oligomers, synaptophysin and phosphorylated tau was quantified using NIH image-J.

[4] = tested on: Tauopathy model mice (Tau784); experiment: Morris water maze behavioral test (cognitive function) in tauopathy model mice; assay type: in vivo, mouse; settings: Tau784 mice 14-15 mo, transnasal, every day for 1 month
Source text: Tauopathy model mice (Umeda T et al., Am. J. Pathol. 183, 211-225, 2013) were provided, 14- to 15-month-old individuals of the model mice were used as subjects of administration.

[5] = target: T2, Aβ42 (Homo sapiens, UniProt P05067); experiment: Suppression of the toxicity of Aβ42; settings: confirmed by the present inventors
T2 construct: suppress the toxicity of Aβ42

[6] = tested on: causative protein for a neurodegenerative disease; experiment: Suppression of the aggregation of a causative protein for a neurodegenerative disease; settings: confirmed by the present inventors
[7] = tested on: patients having mild to moderate Alzheimer's disease; settings: 119 patients, 52 weeks; 500 mg, increased by 500 mg every 13 weeks to 1000 mg twice per day; cited from earlier work
[8] = tested on: mitogen (division promoting factor)-activated protein (MAP) kinase; settings: differentiated or undifferentiated human neuroblast SH-SY5Y; cited from earlier work
[9] = tested on: synaptophysin; experiment: Immunohistochemical staining and quantification of synaptophysin in hippocampus (SVP-38 antibody); assay type: in vivo, mouse; settings: APPOSK mice; rifampicin 0.05 mg/day transnasal, every day for 1 month; listed as Reference Working Example 3
Source text: as §1

[10] = tested on: phosphorylated tau; experiment: Immunohistochemical staining and quantification of phosphorylated tau in hippocampus (PHF-1 antibody); assay type: in vivo, mouse; settings: APPOSK mice; rifampicin 0.05 mg/day transnasal, every day for 1 month; listed as Reference Working Example 3
Source text: as §1

[11] = tested on: α-synuclein transgenic (αSyn-Tg) mice each having an A53T mutation; experiment: Morris water maze behavioral test (cognitive function) in synucleinopathy model mice; assay type: in vivo, mouse; settings: αSyn-Tg 6 mo mice (DLB model); rifampicin 0.1 mg/day transnasal, every day for 1 month; listed as Reference Working Example 5
Description: As synucleinopathy models, α-synuclein transgenic (αSyn-Tg) mice each having an A53T mutation were purchased from Jackson Laboratories. […] Therefore, in this Test Example, αSyn-Tg 6 mo mice and αSyn-Tg 9 mo mice were used as the subjects of administration.
The motor function and the cognitive function of each of the model mice were confirmed by a motor function test and a cognitive function test as mentioned below. The motor function test was carried out using a rotarod. Each of the mice was placed on a rotor which could rotate at a speed of 5 rpm (5 rotations per minute), was then subjected to such a training that the mouse was allowed to walk on the rotor for 3 minutes, and was then placed on a rotor of which the speed of rotation could increase from 4 rpm to 40 rpm over 4 minutes, and the time (seconds) until the mouse fell off the rotor was measured (when the mouse was turned once while holding on to the rotor, it was deemed that the mouse fell off). The measurement was carried out twice per day, and an average value of the measurement values was determined. The cognitive function test was carried out in accordance with the method described in Umeda et al. Brain 2016; 139: 1568-86 by measuring the spatial reference memory of the mice using a Morris water maze (the cognitive function test in the below-mentioned examples was carried out in the same manner as in this Test Example). […]

[12] = target: Aβ (Homo sapiens, UniProt P05067); experiment: In vitro formation of oligomers of Aβ
[13] = tested on: tau; experiment: In vitro formation of oligomers of tau
[14] = target: α-synuclein (Homo sapiens, UniProt P37840); experiment: In vitro formation of oligomers of α-synuclein
[15] = tested on: AD model mouse in which Aβ is accumulated; experiment: Oral administration to AD model mouse; assay type: in vivo; settings: orally administered
[16] = tested on: FTD model mouse in which tau is accumulated; experiment: Oral administration to FTD model mouse; assay type: in vivo; settings: orally administered
[17] = APPOSK mice, serum, rifampicin 0.05 mg/day transnasal, every day for 1 month, Mean ± SEM, n = 11

Oc1ccc(/C=C/c2cc(O)cc(O)c2)cc1 [resveratrol, 3,5,4′-trihydroxy-trans-stilbene]
Cognitive function (Morris water maze) ([1]; APPOSK mice 13 mo, resveratrol 0.02 mg/day, every day for 1 month (Test Example 6)): the cognitive function-improving effect was observed, although the effect was exerted slowly | Cognitive function (Morris water maze) ([1]; APPOSK mice 13 mo, resveratrol 0.1 mg/day, every day for 1 month (Test Example 6)): the improvement of cognitive function was observed to a level close to that observed in the wild-type mice | Cognitive function (Morris water maze) ([1]; APPOSK mice, resveratrol 0.02 mg/day alone, every day for 1 month (Test Example 3), listed as Reference Example 10): the cognitive function improving tendency was observed; also recorded: a slow cognitive function-improving effect on a neurodegenerative disease was observed | AST level ([2]; APPOSK mice (not shown), resveratrol 0.1 mg administered alone): about 86 IU/L | AST level / liver protection activity (in words) ([2]; APPOSK mice (not shown), resveratrol 0.1 mg alone, compared with Reference Example 9 (CMC)): the AST level was decreased and a positive liver protection activity was confirmed | AST level (in words) ([2]; APPOSK mice, resveratrol 0.02 mg/day alone, every day for 1 month, compared with Reference Example 9 (CMC)): AST was not reduced | Removal of accumulated Aβ oligomers (immunostaining) ([3]; resveratrol 0.02 mg/day alone, listed as Reference Example 10): the effect to remove the accumulated Aβ oligomers was observed, but the level of the effect was smaller than that in Example 1; also recorded: the accumulated Aβ oligomers removing effect was confirmed; also recorded: the significant removal of the accumulated oligomers was observed | Cognitive function (Morris water maze) ([4]; resveratrol 0.02 mg/day alone, listed as Reference Example 15): the cognitive function improving effect was developed slowly; also recorded: a slow cognitive function-improving effect on a neurodegenerative disease was observed | Effect to suppress the toxicity of Aβ42 [5]: significantly weaker compared with rifampicin | Effect to suppress the aggregation of a causative protein for a neurodegenerative disease [6]: weak | Effectiveness on Alzheimer's disease compared with placebo [7]: the effectiveness of the administration of resveratrol could not been confirmed | Phosphorylation of MAP kinase [8]: induces the phosphorylation of mitogen (division promoting factor)-activated protein (MAP) kinase

CO[C@H]1/C=C/O[C@@]2(C)Oc3c(C)c(O)c4c(O)c(c(/C=N/N5CCN(C)CC5)c(O)c4c3C2=O)NC(=O)/C(C)=C\C=C\[C@H](C)[C@H](O)[C@@H](C)[C@@H](O)[C@@H](C)[C@H](OC(C)=O)[C@@H]1C [rifampicin, 3-(4-methylpiperazinyliminomethyl)rifamycin SV]
Cognitive function (Morris water maze) ([1]; APPOSK mice, rifampicin 0.02 mg/day alone, every day for 1 month): the cognitive function improving tendency was observed | Improvement of memory impairment (Morris water maze) ([1]; APPOSK mice, rifampicin 0.05 mg/day transnasal, every day for 1 month, listed as Reference Working Example 3): the improvement effect was at the same level as that in the wild-type mice; also recorded: the improvement effect was higher than that in the case of oral administration | ALT [2, 17]: 40 ± 10 IU/L | AST [2, 17]: 165 ± 32 IU/L | AST level (in words) ([2]; APPOSK mice, rifampicin 0.02 mg/day alone, every day for 1 month, listed as Comparative Example 1): the increase in AST level, which indicated the occurrence of adverse side effects, was observed; also recorded: significantly reduced compared with the case of oral administration | Removal of accumulated Aβ oligomers (immunostaining) ([3]; rifampicin 0.02 mg/day alone): the effect to remove the accumulated Aβ oligomers was observed, but the level of the effect was smaller than that in Example 1 | Synaptophysin recovery in the hippocampus (immunostaining) [9]: the decreased synaptophysin was recovered; also recorded: the same level as that in the wild-type mice; also recorded: the effect was higher than that in the oral administration | Phosphorylated tau reduction in the hippocampus (immunostaining) [10]: the amount of phosphorylated tau accumulated in the brain was decreased and high | Cognitive function / memory impairment (Morris water maze) [11]: the improvement of memory impairment was observed from day 1 after the administration; also recorded: the cognitive function was recovered to the same level as that in normal Non-Tg mice | Cognitive function (Morris water maze) ([4]; rifampicin 0.02 mg/day alone): the cognitive function improving effect was developed slowly | Inhibition of in vitro formation of oligomers of Aβ [12]: can inhibit the in vitro formation of oligomers | Inhibition of in vitro formation of oligomers of tau [13]: can inhibit the in vitro formation of oligomers | Inhibition of in vitro formation of oligomers of α-synuclein [14]: can inhibit the in vitro formation of oligomers | Cognitive function [15]: can recover the cognitive function of the mouse | Cognitive function [16]: can recover the cognitive function of the mouse | Effect to suppress the toxicity of Aβ42 [5]: can completely suppress the toxicity of Aβ42
